The values that follow come from publication PMC5902452, “In silico optimization of a guava antimicrobial peptide enables combinatorial exploration for peptide design” (Nature Communications, 2018).

The subject of one data set is erythrocytes. Conditions: cited from earlier work.
Data set [1] relates to P. aeruginosa strain PAO1. As to the kind of experiment: Scarification skin infection mouse model. The class given is in vivo, female CD-1 mice. On the procedure: P. aeruginosa strain PAO1 was grown to an optical density at 600 nm (OD600) of 1 in tryptic soy broth medium. Subsequently cells were washed twice with sterile PBS, and resuspended to a final concentration of 5 × 10^7 CFU in 50 μL. To generate skin infection, female CD-1 mice (6 weeks old) were anesthetized with isoflurane and had their backs shaved. A superficial linear skin abrasion was made with a needle in order to damage the stratum corneum and upper layer of the epidermis. Five minutes after wounding, an aliquot of 50 μL containing 5 × 10^7 CFU of bacteria in PBS was inoculated over each defined area containing the scratch with a pipette tip. One day after the infection, peptides were administered to the infected area. Animals were euthanized and the area of scarified skin was excised 2 and 4 days post-infection, homogenized using a bead beater for 20 min (25 Hz), and serially diluted for CFU quantification. Two independent experiments were performed with four mice per group in each case. Statistical significance was assessed using a two-way ANOVA. Animals were maintained in accordance with the Guide for the Care and Use of Laboratory Animals in an AAALAC-accredited facility. All procedures were approved by the MIT’s Institutional Animal Care and Use Committee (IACUC), protocol number 1016-064-19.

“Pg-AMP1: guava glycine-rich antimicrobial peptide, UniProt P86030, template of the guavanins (RESPSSRMECYEQAERYGYGGYGGGRYGGGYGSGRGQPVGQGVERSHDDNRNQPR; UniProt P86030 1-55, looked up)”: the hemolytic activity result in the data set on erythrocytes was “hemolytic”. Besides, the anti-infective activity entry in data set [1] (6.25 μg mL−1, 4 days post-infection) was “no activity”. For the same substance, the “effect on CFU counts / bacterial load (two-way ANOVA)” value in data set [1] (doses 6.25, 25 and 100 µg mL−1, 4 days post-infection, two experiments, four mice per group) was “significant reduction of bacterial load only at higher concentrations”. In data set [1] (wound infection mouse model), the “dose at which activity is kept after 4 days” value is 25 µg/mL.
